Legend:
[1] = system: HaCaT cells; assay: DCF-DA assay (intracellular ROS after H2O2); assay type: cell-based, human; details: H2O2 treatment, 24 h; for inhibition at 100 µM: Homo sapiens, 100 μΜ, read-out: DCFDA Assay, % (100 μΜ)
Description: In the setting of evaluating bioactive compounds in terms of antioxidant capacity in various cell lines, DCF-DA is the most widely used assay for the detection of intracellular H2O2 and oxidative stress. DCF-DA is cell-permeable and is hydrolyzed intracellularly to the DCFH carboxylate anion, which is retained in the cell.
DCFDA is a fluorescent dye that measures the activity of hydroxyl radicals, peroxyl radicals, and other reactive oxygen species (ROS) within the cell. The DCFDA analysis protocol is based on the diffusion of DCFDA into the cell. It is then deacetylated from cellular esterases to a non-fluorescent compound, which is later oxidized by ROS to 2’,7’ -dichlorofluoroscein (DCF). The produced compound (DCF) is fluorescent and is detected by fluorescence spectroscopy at 485/535 nm (excitation/emission).
For the experimental procedure a standard solution of DCF-DA (20mM) in DMSO was prepared which was stored in the dark (−20 °C) until use. In a 96-well plate, cells were cultured to a density of 3 × 10^4 cells/well.
The cells remained in the incubator (37 °C, 5% CO2) for 24 h, after which an appropriate amount of H2O2 (2 mM) was added and the dish was returned for incubation for the next 2 h. This was followed by the addition of the test substances (100μM) and incubation for 24 h. At the end of the treatment time, all wells were washed with PBS, and DCF-DA solution (working concentration: 10 μM) (in 200 μL of nutrient) was added and incubated for 40 min.
After incubation, the medium with the DCF-DA was removed and replaced with FBS-free DMEM. The measurement of the […] was made immediately after that in a plate reader at 495/530 nm (excitation/emission).
All samples were tested in triplicates, against a control (without effects), blank (without cells), and positive control (standard 100 μM Ascorbic acid solution was used).
The percentage of antioxidant capacity (%) was calculated according to the following Equation (6) evaluating the presence of ROS [42]:(6) % AI=( OD Sample 530 nm−Blank)−(OD Control 530 nm−Blank)/(OD Control 530 nm−Blank) × 100

[2] = biological target: T1, soybean LOX (Glycine max, UniProt P08170); assay: Inhibition of soybean LOX; assay type: biochemical; details: for inhibition at 100 µM: read-out: Soybean LOX % inhibition (100 μΜ)
T1 construct: purchased Sigma-Aldrich and Fluka
T1 sequence (P08170 1-839): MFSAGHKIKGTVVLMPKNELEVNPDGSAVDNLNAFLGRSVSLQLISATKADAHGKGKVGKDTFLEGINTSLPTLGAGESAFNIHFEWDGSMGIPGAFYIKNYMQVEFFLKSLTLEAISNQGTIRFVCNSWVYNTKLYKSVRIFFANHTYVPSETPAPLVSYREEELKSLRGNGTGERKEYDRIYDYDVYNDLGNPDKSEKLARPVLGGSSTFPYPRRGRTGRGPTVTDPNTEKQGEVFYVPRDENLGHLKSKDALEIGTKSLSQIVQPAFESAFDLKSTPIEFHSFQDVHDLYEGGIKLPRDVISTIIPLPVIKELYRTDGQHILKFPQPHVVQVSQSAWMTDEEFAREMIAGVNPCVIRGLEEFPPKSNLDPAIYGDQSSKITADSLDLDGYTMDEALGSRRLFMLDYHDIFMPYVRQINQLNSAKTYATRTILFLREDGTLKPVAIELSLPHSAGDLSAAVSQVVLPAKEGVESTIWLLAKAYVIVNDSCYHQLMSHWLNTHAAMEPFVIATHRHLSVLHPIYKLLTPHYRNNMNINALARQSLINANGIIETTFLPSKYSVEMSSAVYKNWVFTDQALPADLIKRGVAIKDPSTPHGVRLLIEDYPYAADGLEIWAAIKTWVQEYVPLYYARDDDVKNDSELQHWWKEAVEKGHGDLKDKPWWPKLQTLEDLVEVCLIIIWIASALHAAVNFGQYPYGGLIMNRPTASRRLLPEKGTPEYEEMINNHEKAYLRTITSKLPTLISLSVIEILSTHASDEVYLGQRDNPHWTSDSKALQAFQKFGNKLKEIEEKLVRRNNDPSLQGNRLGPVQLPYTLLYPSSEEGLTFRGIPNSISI
Method: Soybean LOX is a plant enzyme which has been used widely as a prototype for studying the functional and structural properties of the homologous family of lipoxygenases, presenting satisfactory homology with the human 5-LOX [14]. Linoleic acid (LA) is a standard substrate for plant LOXs. In this protocol, all new molecules were tested as inhibitors of soybean LOX as an indication of their anti-inflammatory activity (Table 3).
For the reference sample in a UV cuvette 10 μL of the test sample (100 μM diluted in DMSO), 200 μL LOX solution (diluted in NaCl 0.9%), 100 μL LA (diluted in Tris buffer) and Tris buffer solution (pH 9) were added to a final volume of 1 mL. Respectively for the measurement sample, also in a UV cuvette 10 μL of test sample, 200 μL LOX solution, and Tris buffer solution (pH 9) were added to a final volume of 1mL. Standard and blank samples were prepared in the same way using DMSO (solvent) instead of the tested coumarin analogues.

| Structure (SMILES) | inhibition at 100 µM [1] [%] | Soybean LOX % inhibition (100 μΜ) [2] | inhibition at 100 µM [2] [%] | IC50 [2] [µM] | DCFDA Assay, % (100 μΜ) [1] |
| --- | --- | --- | --- | --- | --- |
| CC(=O)Oc1cccc2oc(=O)c(-c3ccccc3Cl)c(C)c12 [Compound 3a, 5-acetyloxy-3-(2-chlorophenyl)-4-methyl-chromen-2-one] | 33.8 | inactive | 17 |  |  |
| CC(=O)Oc1cccc2oc(=O)c(-c3cccc(Cl)c3)c(C)c12 [Compound 3b, 5-acetyloxy-3-(3-chlorophenyl)-4-methyl-chromen-2-one] | 56.9 |  |  | 31.6 |  |
| CC(=O)Oc1cccc2oc(=O)c(-c3ccc(Cl)cc3)c(C)c12 [Compound 3c, 5-acetyloxy-3-(4-chlorophenyl)-4-methyl-chromen-2-one] |  | no |  |  | no |
| CC(=O)Oc1cccc2oc(=O)c(-c3ccccc3F)c(C)c12 [Compound 3d, 5-acetyloxy-3-(2-fluorophenyl)-4-methyl-chromen-2-one] | 22.4 | inactive | 11.6 |  |  |
| CC(=O)Oc1cccc2oc(=O)c(-c3cccc(F)c3)c(C)c12 [Compound 3e, 5-acetyloxy-3-(3-fluorophenyl)-4-methyl-chromen-2-one] |  |  |  | 11.4 | no |
| CC(=O)Oc1cccc2oc(=O)c(-c3ccc(F)cc3)c(C)c12 [Compound 3f, 5-acetyloxy-3-(4-fluorophenyl)-4-methyl-chromen-2-one] | 100 | inactive | 20.1 |  |  |
| CC(=O)Oc1cccc2oc(=O)c(-c3cccc(Br)c3)c(C)c12 [Compound 3g, 5-acetyloxy-3-(3-bromophenyl)-4-methyl-chromen-2-one] | 45.5 |  |  | 40.5 |  |
| CC(=O)Oc1ccc(-c2c(C)c3ccccc3oc2=O)cc1 [Compound 3h, 3-(4-acetyloxyphenyl)-4-methyl-chromen-2-one] |  |  | 33.8 |  | no |
| CC(=O)Oc1ccc(-c2c(C)c3cc(Br)ccc3oc2=O)cc1 [Compound 3i, 3-(4-acetyloxyphenyl)-6-bromo-4-methyl-chromen-2-one] | 80.9 |  | 46.5 |  |  |
| CC(=O)Oc1ccc(-c2c(C)c3cc(Cl)ccc3oc2=O)cc1 [Compound 3j, 3-(4-acetyloxyphenyl)-6-chloro-4-methyl-chromen-2-one] | 9 |  |  | 49.5 |  |
| CC(=O)Oc1ccc(-c2c(C)c3cc(Br)cc(Br)c3oc2=O)cc1 [Compound 3k, 3-(4-acetyloxyphenyl)-6,8-dibromo-4-methyl-chromen-2-one] |  |  |  | 8.7 | no |
| CC(=O)Oc1ccc(-c2c(C)c3ccccc3oc2=O)cc1OC(C)=O [Compound 3l, 3-(4,5-diacetyloxyphenyl)-4-methyl-chromen-2-one] |  |  | 31.4 |  | no |
| CC(=O)Oc1ccc(-c2c(C)c3cc(Br)ccc3oc2=O)cc1OC(C)=O [Compound 3m, 3-(4,5-diacetyloxyphenyl)-6-bromo-4-methyl-chromen-2-one] |  |  | 48 |  | no |
| CC(=O)Oc1ccc(-c2c(C)c3cc(Cl)ccc3oc2=O)cc1OC(C)=O [Compound 3n, 3-(4,5-diacetyloxyphenyl)-6-chloro-4-methyl-chromen-2-one] |  |  |  | 56.5 | no |
| CC(=O)Oc1ccc(-c2c(C)c3cc(Br)cc(Br)c3oc2=O)cc1OC(C)=O [Compound 3o, 3-(4,5-diacetyloxyphenyl)-6,8-dibromo-4-methyl-chromen-2-one] | 25.7 | no |  |  |  |
| Cc1c(-c2ccccc2Cl)c(=O)oc2cccc(O)c12 [Compound 4a, 3-(2-chlorophenyl)-5-hydroxy-4-methyl-chromen-2-one] | 0 |  |  | 10 |  |
| Cc1c(-c2cccc(Cl)c2)c(=O)oc2cccc(O)c12 [Compound 4b, 3-(3-chlorophenyl)-5-hydroxy-4-methyl-chromen-2-one] | 27.4 |  | 47.3 |  |  |
| Cc1c(-c2ccc(Cl)cc2)c(=O)oc2cccc(O)c12 [Compound 4c, 3-(4-chlorophenyl)-5-hydroxy-4-methyl-chromen-2-one] |  |  | 0.9 |  | no |
| Cc1c(-c2ccccc2F)c(=O)oc2cccc(O)c12 [Compound 4d, 3-(2-fluorophenyl)-5-hydroxy-4-methyl-chromen-2-one] |  |  |  | 31.6 | no |
| Cc1c(-c2cccc(F)c2)c(=O)oc2cccc(O)c12 [Compound 4e, 3-(3-fluorophenyl)-5-hydroxy-4-methyl-chromen-2-one] |  |  |  | 4.1 | no |
| Cc1c(-c2ccc(F)cc2)c(=O)oc2cccc(O)c12 [Compound 4f, 3-(4-fluorophenyl)-5-hydroxy-4-methyl-chromen-2-one] |  |  | 39.2 |  | no |
| Cc1c(-c2ccc(O)cc2)c(=O)oc2ccccc12 [Compound 4h, 3-(4-hydroxyphenyl)-4-methyl-chromen-2-one] |  |  | 27.2 |  | no |
| Cc1c(-c2ccc(O)cc2)c(=O)oc2ccc(Br)cc12 [Compound 4i, 6-bromo-3-(4-hydroxyphenyl)-4-methyl-chromen-2-one] | 100 |  | 19.3 |  |  |
| Cc1c(-c2ccc(O)cc2)c(=O)oc2ccc(Cl)cc12 [Compound 4j, 6-chloro-3-(4-hydroxyphenyl)-4-methyl-chromen-2-one] | 2.1 |  | 35 |  |  |
| Cc1c(-c2ccc(O)cc2)c(=O)oc2c(Br)cc(Br)cc12 [Compound 4k, 6,8-dibromo-3-(4-hydroxyphenyl)-4-methyl-chromen-2-one] |  | inactive | 33.4 |  | no |

— publication PMC8512853, “Synthesis, Bioactivity, Pharmacokinetic and Biomimetic Properties of Multi-Substituted Coumarin Derivatives” (Molecules, 2021)
